Results published in the NIST ThermoML archive (doi:10.1016/j.fluid.2015.05.016).
Numbers after ± are expanded uncertainties. Each block holds one compound with its values, some of them ahead of it.

Experiments:
[1] = xn = mol fraction of the nth substance listed; settings: 298.15 K, 100 kPa, Liquid, Vibrating tube method
[2] = molar heat capacity at constant pressure; xn = mol fraction of the nth substance listed; settings: 298.15 K, 100 kPa, Liquid, Large sample (1 g) DSC
[3] = molar heat capacity at constant pressure; settings: 298.15 K; 101.33 kPa; Liquid; Large sample (1 g) DSC
[4] = 298.15 K; 101.33 kPa; Liquid; Vibrating tube method

- mass density ([1]; x2 = 0): 786.585 ± 0.24 kg/m3
- molar heat capacity at constant pressure ([2]; x2 = 0): 81.37 ± 1.3 J/K/mol
SMILES: CO [methanol] + CCCC(O)CO

- molar heat capacity at constant pressure ([2]; x2 = 0): 81.37 ± 1.3 J/K/mol
SMILES: CO [methanol] + CC(O)CO

- molar heat capacity at constant pressure [3]: 81.37 ± 1.4 J/K/mol
- mass density [4]: 786.585 ± 0.24 kg/m3
SMILES: CO [methanol]

The next lines start with the compound.

SMILES: CC(O)CO (stereo not drawn) [1,2-propanediol]
- molar heat capacity at constant pressure [3]: 191.71 ± 3.2 J/K/mol
- mass density [4]: 1032.55 ± 0.11 kg/m3

SMILES: CCCC(O)CO (stereo not drawn) [1,2-pentanediol]
- molar heat capacity at constant pressure [3]: 266.29 ± 4.6 J/K/mol
- mass density [4]: 966.678 ± 3.2 kg/m3

SMILES: CCCC(O)CO (stereo not drawn) [1,2-pentanediol] + CO
- mass density ([1]; x1 = 0.073): 832.04 ± 0.31 kg/m3
- mass density ([1]; x1 = 0.31): 886.031 ± 0.67 kg/m3
- mass density ([1]; x1 = 0.5238): 929.073 ± 1.2 kg/m3
- mass density ([1]; x1 = 0.6142): 931.181 ± 1.5 kg/m3
- mass density ([1]; x1 = 0.7047): 946.883 ± 1.8 kg/m3
- mass density ([1]; x1 = 0.8127): 950.977 ± 2.3 kg/m3
- mass density ([1]; x1 = 0.914): 961.834 ± 2.8 kg/m3
- mass density ([1]; x1 = 1): 966.678 ± 3.2 kg/m3
- molar heat capacity at constant pressure ([2]; x1 = 0.073): 94.77 ± 1.5 J/K/mol
- molar heat capacity at constant pressure ([2]; x1 = 0.1773): 114.15 ± 1.8 J/K/mol
- molar heat capacity at constant pressure ([2]; x1 = 0.31): 138.7 ± 2.1 J/K/mol
- molar heat capacity at constant pressure ([2]; x1 = 0.3868): 152.56 ± 2.4 J/K/mol
- molar heat capacity at constant pressure ([2]; x1 = 0.5238): 178.04 ± 2.8 J/K/mol
- molar heat capacity at constant pressure ([2]; x1 = 0.6142): 194.86 ± 3 J/K/mol
- molar heat capacity at constant pressure ([2]; x1 = 0.7047): 211.81 ± 3.3 J/K/mol
- molar heat capacity at constant pressure ([2]; x1 = 0.8127): 231.91 ± 3.6 J/K/mol
- molar heat capacity at constant pressure ([2]; x1 = 0.914): 250.63 ± 3.9 J/K/mol
- molar heat capacity at constant pressure ([2]; x1 = 1): 266.29 ± 4.1 J/K/mol

SMILES: CC(O)CO (stereo not drawn) [1,2-propanediol] + CO
- molar heat capacity at constant pressure ([2]; x1 = 0.0743): 89.47 ± 1.4 J/K/mol
- molar heat capacity at constant pressure ([2]; x1 = 0.2305): 106.48 ± 1.6 J/K/mol
- molar heat capacity at constant pressure ([2]; x1 = 0.3354): 118.08 ± 1.8 J/K/mol
- molar heat capacity at constant pressure ([2]; x1 = 0.4104): 126.35 ± 2 J/K/mol
- molar heat capacity at constant pressure ([2]; x1 = 0.51): 137.4 ± 2.1 J/K/mol
- molar heat capacity at constant pressure ([2]; x1 = 0.6498): 152.77 ± 2.4 J/K/mol
- molar heat capacity at constant pressure ([2]; x1 = 0.7273): 161.34 ± 2.5 J/K/mol
- molar heat capacity at constant pressure ([2]; x1 = 0.7821): 167.69 ± 2.6 J/K/mol
- molar heat capacity at constant pressure ([2]; x1 = 0.8985): 180.45 ± 2.8 J/K/mol
- molar heat capacity at constant pressure ([2]; x1 = 1): 191.71 ± 3 J/K/mol

SMILES: CCC(O)CO (stereo not drawn) [1,2-butanediol]
- mass density [4]: 998.505 ± 0.068 kg/m3
